From US20250268877A1 (BIOGEN MA INC., priority 2020, published 2025)
In brackets after ≈: the same amount, converted by molar mass.

What was measured:
IRAK4 = IRAK4 (Homo sapiens (Human), UniProt Q9NWZ3); assay: IRAK4 2-hour 1 mM ATP Biochemical Assay (MesoScale Detection format); settings: 100 pM IRAK4, read-out: IRAK4 IC50
MDR1 = MDR1 (Homo sapiens (Human), UniProt P08183); assay: MDR1-MDCK assay (apparent permeability, efflux ratio); assay type: in vitro ADME; settings: human, MDCK-MDR1, 1 μM, read-out: MDR1-MDCK_Efflux Ratio
[1] = Kinetic solubility assay (CLND), potassium phosphate buffer pH 6.8; assay type: physicochemical; settings: pH 6.8, 2% DMSO, 24 hours at ambient temperature; for solubility at 24 h: potassium phosphate buffer, pH 6.8, aqueous buffer, kinetic from dmso stock

Chain of MDR1 (P08183 whole entry): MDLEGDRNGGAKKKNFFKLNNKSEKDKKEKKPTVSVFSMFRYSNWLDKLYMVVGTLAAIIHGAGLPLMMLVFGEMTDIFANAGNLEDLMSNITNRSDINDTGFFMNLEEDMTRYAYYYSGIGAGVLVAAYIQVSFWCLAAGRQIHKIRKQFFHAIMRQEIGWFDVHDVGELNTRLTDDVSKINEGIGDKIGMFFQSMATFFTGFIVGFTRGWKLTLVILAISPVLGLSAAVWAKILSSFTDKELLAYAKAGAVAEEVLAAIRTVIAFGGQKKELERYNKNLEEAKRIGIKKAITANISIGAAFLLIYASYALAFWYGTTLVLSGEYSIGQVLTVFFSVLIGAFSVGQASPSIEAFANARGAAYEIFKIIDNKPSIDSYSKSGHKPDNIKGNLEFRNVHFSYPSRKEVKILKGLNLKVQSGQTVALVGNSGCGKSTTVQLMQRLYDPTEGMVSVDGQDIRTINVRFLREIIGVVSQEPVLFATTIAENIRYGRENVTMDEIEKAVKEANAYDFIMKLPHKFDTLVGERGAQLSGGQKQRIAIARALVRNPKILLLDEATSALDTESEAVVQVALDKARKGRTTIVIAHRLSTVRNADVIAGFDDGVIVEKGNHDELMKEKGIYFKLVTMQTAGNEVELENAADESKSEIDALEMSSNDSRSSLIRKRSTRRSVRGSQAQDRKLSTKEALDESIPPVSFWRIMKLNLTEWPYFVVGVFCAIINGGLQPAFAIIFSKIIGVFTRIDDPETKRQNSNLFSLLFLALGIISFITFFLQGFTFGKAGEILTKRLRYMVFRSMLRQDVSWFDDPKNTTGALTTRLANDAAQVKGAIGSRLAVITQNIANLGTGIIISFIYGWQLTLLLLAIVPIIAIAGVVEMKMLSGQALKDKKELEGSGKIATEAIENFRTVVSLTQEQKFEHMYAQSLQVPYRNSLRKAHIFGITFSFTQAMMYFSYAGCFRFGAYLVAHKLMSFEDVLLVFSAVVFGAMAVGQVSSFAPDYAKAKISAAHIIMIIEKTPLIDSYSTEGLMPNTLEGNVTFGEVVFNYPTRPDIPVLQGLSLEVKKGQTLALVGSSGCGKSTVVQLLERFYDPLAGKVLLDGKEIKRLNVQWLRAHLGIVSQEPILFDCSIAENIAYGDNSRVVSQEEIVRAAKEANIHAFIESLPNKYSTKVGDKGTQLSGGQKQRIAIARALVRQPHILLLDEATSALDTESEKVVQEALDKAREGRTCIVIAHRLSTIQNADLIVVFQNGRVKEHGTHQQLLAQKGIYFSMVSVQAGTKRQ
Chain of IRAK4 (Q9NWZ3 whole entry): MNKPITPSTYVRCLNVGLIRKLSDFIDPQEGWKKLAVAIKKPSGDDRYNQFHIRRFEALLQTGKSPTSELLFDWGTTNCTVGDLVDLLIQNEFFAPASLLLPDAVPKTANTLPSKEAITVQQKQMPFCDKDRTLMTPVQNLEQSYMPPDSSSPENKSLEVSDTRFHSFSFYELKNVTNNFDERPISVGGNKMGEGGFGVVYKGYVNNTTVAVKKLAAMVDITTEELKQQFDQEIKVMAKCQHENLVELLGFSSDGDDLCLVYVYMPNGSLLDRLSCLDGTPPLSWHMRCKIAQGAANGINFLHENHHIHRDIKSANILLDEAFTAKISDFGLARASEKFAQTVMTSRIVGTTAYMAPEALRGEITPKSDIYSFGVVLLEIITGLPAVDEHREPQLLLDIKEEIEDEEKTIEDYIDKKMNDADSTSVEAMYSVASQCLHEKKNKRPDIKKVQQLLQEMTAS

SMILES	IC50 (IRAK4)	efflux ratio at 120 min, 1 μM (MDR1)	solubility at 24 h [1]	Solubility pH 6.8 [1]
CC(C)Oc1nc2nn([C@H]3CCCOC3)cc2cc1C(=O)Nc1cccn(C2CC2)c1=O [Example 16, (S)—N-(1-cyclopropyl-2-oxo-1,2-dihydropyridin-3-yl)-6-isopropoxy-2-(tetrahydro-2H-pyran-3-yl)-2H-pyrazolo[3,4-b]pyridine-5-carboxamide]	0.2 nM	2.09	44.6 µg/mL (≈ 102 µM)	
CC(C)Oc1cc2nn(C34COC(C)(C3)C4)cc2cc1C(=O)Nc1ccnn(C2CC2)c1=O [Example 45, N-(2-cyclopropyl-3-oxo-2,3-dihydropyridazin-4-yl)-6-isopropoxy-2-(1-methyl-2-oxabicyclo[2.1.1]hexan-4-yl)-2H-indazole-5-carboxamide]	1.3 nM	0.73	1.2 µg/mL (≈ 2.67 µM)	
CC12CC(n3cc4cc(C(=O)Nc5cccn([C@@H]6C[C@@H]6F)c5=O)c(OC5CCC5)nc4n3)(CO1)C2 (racemic) [Example 25, 6-cyclobutoxy-N-(1-(cis-2-fluorocyclopropyl)-2-oxo-1,2-dihydropyridin-3-yl)-2-(1-methyl-2-oxabicyclo[2.1.1]hexan-4-yl)-2H-pyrazolo[3,4-b]pyridine-5-carboxamide]	0.3 nM	2.71	29.2 µg/mL (≈ 60.9 µM)	
CC(C)Oc1cc2nn([C@]34CC[C@](C)(C3)OC4)cc2cc1C(=O)Nc1cccn(C2CC2)c1=O [Example 3, N-(1-cyclopropyl-2-oxo-1,2-dihydropyridin-3-yl)-6-isopropoxy-2-((1R,4R)-1-methyl-2-oxabicyclo[2.2.1]heptan-4-yl)-2H-indazole-5-carboxamide]	0.5 nM	1.59	7.9 µg/mL (≈ 17.1 µM)	
CC(C)Oc1cc2nn(C34COC(C3)C4)cc2cc1C(=O)Nc1cccn([C@H]2C[C@H]2C)c1=O [Example 79, 2-(2-oxabicyclo[2.1.1]hexan-4-yl)-6-isopropoxy-N-(1-((1S,2R)-2-methylcyclopropyl)-2-oxo-1,2-dihydropyridin-3-yl)-2H-indazole-5-carboxamide]	0.8 nM	2.56	55.8 µg/mL (≈ 124 µM)	
COCC12CC(n3cc4cc(C(=O)Nc5cccn([C@H]6C[C@@H]6F)c5=O)c(OC(C)C)cc4n3)(CO1)C2 (single isomer, unassigned) [Example 56]	0.8 nM	3.31	63.9 µg/mL (≈ 129 µM)	
COCC12CC(n3cc4cc(C(=O)Nc5cccn([C@H]6C[C@H]6F)c5=O)c(OC(C)C)cc4n3)(CO1)C2 [Example 67, N-(1-((1S,2R)-2-fluorocyclopropyl)-2-oxo-1,2-dihydropyridin-3-yl)-6-isopropoxy-2-(1-(methoxymethyl)-2-oxabicyclo[2.1.1]hexan-4-yl)-2H-indazole-5-carboxamide]	0.4 nM	5.31	34 µg/mL (≈ 68.5 µM)	
CC(C)Oc1cc2nn([C@]34CC[C@](C)(C3)OC4)cc2cc1C(=O)Nc1cccn([C@@H]2C[C@H]2F)c1=O (single isomer, unassigned) [Example 61]	0.5 nM	1.43	51.5 µg/mL (≈ 107 µM)	
C[C@]12CC[C@](n3cc4cc(C(=O)Nc5cccn(C6CC6)c5=O)c(OC5CCC5)nc4n3)(CO1)C2 [Example 7, 6-cyclobutoxy-N-(1-cyclopropyl-2-oxo-1,2-dihydropyridin-3-yl)-2-((1R,4R)-1-methyl-2-oxabicyclo[2.2.1]heptan-4-yl)-2H-pyrazolo[3,4-b]pyridine-5-carboxamide]	0.7 nM	1.43	10.3 µg/mL (≈ 21.6 µM)	
CC12CC(n3cc4cc(C(=O)Nc5cccn(C6CC6)c5=O)c(OC5CCC5)nc4n3)(CO1)C2 [Example 24, 6-cyclobutoxy-N-(1-cyclopropyl-2-oxo-1,2-dihydropyridin-3-yl)-2-(1-methyl-2-oxabicyclo[2.1.1]hexan-4-yl)-2H-pyrazolo[3,4-b]pyridine-5-carboxamide]	0.4 nM	2.53	5.53 µg/mL (≈ 12 µM)	
CC(C)Oc1cc2nn(C34COC(CF)(C3)C4)cc2cc1C(=O)Nc1cccn([C@H]2C[C@H]2C)c1=O [Example 82, 2-(1-(fluoromethyl)-2-oxabicyclo[2.1.1]hexan-4-yl)-6-isopropoxy-N-(1-((1S,2R)-2-methylcyclopropyl)-2-oxo-1,2-dihydropyridin-3-yl)-2H-indazole-5-carboxamide]	0.7 nM	2.17	33.8 µg/mL (≈ 70.3 µM)	
C[C@@H]1C[C@@H]1n1cccc(NC(=O)c2cc3cn(C45COC(C)(C4)C5)nc3nc2OC2CCC2)c1=O [Example 95, 6-cyclobutoxy-2-(1-methyl-2-oxabicyclo[2.1.1]hexan-4-yl)-N-(1-((1S,2R)-2-methylcyclopropyl)-2-oxo-1,2-dihydropyridin-3-yl)-2H-pyrazolo[3,4-b]pyridine-5-carboxamide]	0.8 nM	1.09	48.3 µg/mL (≈ 102 µM)	
COCC12CC(n3cc4cc(C(=O)Nc5cccn([C@@H]6C[C@H]6F)c5=O)c(OC(C)C)cc4n3)(CO1)C2 (single isomer, unassigned) [Example 55]	0.8 nM	3.71	60.5 µg/mL (≈ 122 µM)	
CC12CC(n3cc4cc(C(=O)Nc5cccn([C@@H]6C[C@@H]6F)c5=O)c(OC5CCC5)nc4n3)(CO1)C2 [Example 26, 6-cyclobutoxy-N-(1-((1R,2S)-2-fluorocyclopropyl)-2-oxo-1,2-dihydropyridin-3-yl)-2-(1-methyl-2-oxabicyclo[2.1.1]hexan-4-yl)-2H-pyrazolo[3,4-b]pyridine-5-carboxamide]	7.3 nM	4.05	1.6 µg/mL (≈ 3.34 µM)	
CC(C)Oc1cc2nn([C@]34CC[C@](C)(C3)OC4)cc2cc1C(=O)Nc1cccn([C@H]2C[C@@H]2F)c1=O (single isomer, unassigned) [Example 62]	0.6 nM	1.6	56.1 µg/mL (≈ 117 µM)	
CC[C@@H](C)Oc1nc2nn(C34COC(C)(C3)C4)cc2cc1C(=O)Nc1cccn(C2CC2)c1=O [Example 14, (R)-6-(sec-butoxy)-N-(1-cyclopropyl-2-oxo-1,2-dihydropyridin-3-yl)-2-(1-methyl-2-oxabicyclo[2.1.1]hexan-4-yl)-2H-pyrazolo[3,4-b]pyridine-5-carboxamide]	1.4 nM	2.27	43 µg/mL (≈ 92.8 µM)	
CC(C)Oc1nc2nn(C3CCOCC3)cc2cc1C(=O)Nc1cccn(C2CC2)c1=O [Example 13]	0.7 nM	3.41	19.8 µg/mL (≈ 45.3 µM)	
CC12CC(n3cc4cc(C(=O)Nc5cccn(C6CC6)c5=O)c(OC5CCC5)cc4n3)(CO1)C2 [Example 1, 6-Cyclobutoxy-N-(1-cyclopropyl-2-oxo-1,2-dihydropyridin-3-yl)-2-(1-methyl-2-oxabicyclo[2.1.1]hexan-4-yl)-2H-indazole-5-carboxamide]	0.9 nM		71 µg/mL (≈ 154 µM)	

The next lines start with the values.

IC50 (IRAK4)	efflux ratio at 120 min, 1 μM (MDR1)	solubility at 24 h [1]	Solubility pH 6.8 [1]	SMILES
0.5 nM	2.5		47.6 ug/mL	C[C@@H]1C[C@@H]1n1cccc(NC(=O)c2cc3cn([C@@]45CC[C@@H](C4)OC5)nc3nc2OC2CC2)c1=O (single isomer, unassigned) [Example 93]
0.4 nM	0.88	0.2 µg/mL (≈ 0.444 µM)		CC(C)Oc1nc2nn(C34COC(C)(C3)C4)cc2cc1C(=O)Nc1ccnn(C2CC2)c1=O [Example 46, N-(2-cyclopropyl-3-oxo-2,3-dihydropyridazin-4-yl)-6-isopropoxy-2-(1-methyl-2-oxabicyclo[2.1.1]hexan-4-yl)-2H-pyrazolo[3,4-b]pyridine-5-carboxamide]
0.8 nM	3.22	13 µg/mL (≈ 25.5 µM)		COCC12CC(n3cc4cc(C(=O)Nc5cccn([C@@H]6C[C@H]6F)c5=O)c(OC5CCC5)nc4n3)(CO1)C2 (single isomer, unassigned) [Example 65]
0.8 nM	3.38	12.3 µg/mL (≈ 24.1 µM)		COCC12CC(n3cc4cc(C(=O)Nc5cccn([C@H]6C[C@@H]6F)c5=O)c(OC5CCC5)nc4n3)(CO1)C2 (single isomer, unassigned) [Example 66]
1.1 nM	5.09	46.7 µg/mL (≈ 104 µM)		C[C@@H]1C[C@@H]1n1cccc(NC(=O)c2cc3cn(C45COC(C4)C5)nc3nc2OC2CC2)c1=O [Example 91, 2-(2-oxabicyclo[2.1.1]hexan-4-yl)-6-cyclopropoxy-N-(1-((1S,2R)-2-methylcycloproyl)-2-oxo-1,2-dihydropyridin-3-yl)-2H-pyrazolo[3,4-b]pyridine-5-carboxamide]
0.2 nM	7.93	62.4 µg/mL (≈ 134 µM)		O=C(Nc1cccn([C@H]2C[C@H]2F)c1=O)c1cc2cn([C@@]34CC[C@@H](C3)OC4)nc2nc1OC1CC1 (single isomer, unassigned) [Example 87]
0.4 nM	4.72	2.7 µg/mL (≈ 6.2 µM)		CC(C)Oc1nc2nn(C34COC(C3)C4)cc2cc1C(=O)Nc1cccn(C2CC2)c1=O [Example 28, 2-(2-oxabicyclo[2.1.1]hexan-4-yl)-N-(1-cyclopropyl-2-oxo-1,2-dihydropyridin-3-yl)-6-isopropoxy-2H-pyrazolo[3,4-b]pyridine-5-carboxamide]
0.5 nM	5.06	58.8 µg/mL (≈ 118 µM)		COCC12CC(n3cc4cc(C(=O)Nc5cccn([C@@H]6C[C@H]6F)c5=O)c(OC(C)C)nc4n3)(CO1)C2 (single isomer, unassigned) [Example 63]
0.9 nM	2.28	38.1 µg/mL (≈ 82.6 µM)		C[C@@H]1C[C@@H]1n1cccc(NC(=O)c2cc3cn(C45COC(C)(C4)C5)nc3nc2OC2CC2)c1=O [Example 89, 6-cyclopropoxy-2-(1-methyl-2-oxabicyclo[2.1.1]hexan-4-yl)-N-(1-((1S,2R)-2-methylcyclopropyl)-2-oxo-1,2-dihydropyridin-3-yl)-2H-pyrazolo[3,4-b]pyridine-5-carboxamide]
